Measured values: patent US8008506B2, “Indazole compounds” (priority 2008, dated 2011)

Assays:
[1] = system: rat under pentobarbital anesthesia; test: Test Example 9: effect on blood pressure and heart rate of rat under pentobarbital anesthesia; type: in vivo; details: 3 mg/kg intravenous, male SD rat, average value ± standard error of largest change
Procedure: Effect on Blood Pressure and Heart Rate of Rat Under Pentobarbital Anesthesia
The effect of intravenous bolus administration of a test compound exerted on the blood pressure and heart rate can be investigated by measuring the blood pressure and heart rate of a rat under pentobarbital anesthesia. 50 mg/kg of pentobarbital sodium (manufactured by Tokyo Chemical Industry Co., Ltd.) is intraperitoneally administered to a male SD rat (supplied by Japan SLC, Inc.) to induce anesthesia, and then 25 mg/kg of pentobarbital sodium is subcutaneously administered to maintain anesthesia. The left femoral vein is exposed and detached, and then a polyethylene tube SP10 (connected to a three-way stopcock via a ¼ vein needle) filled with physiological saline is inserted and placed in the vein.
The inner side of the left femur is incised, and the femoral artery is exposed and detached. A polyethylene tube (SP31, connected to a three-way stopcock via a Terumo injection needle 22G) filled with heparized physiological saline is inserted in the artery, and is connected to a pressure transducer. The blood pressure is measured from the pressure transducer through a pressure amplifier (AP-641G, Nihon Koden Corp.). The heart rate is measured by the Heart Rate Counter (AT-601G, Nihon Koden Corp.), using the pulse wave of the blood pressure as the trigger. The blood pressure, mean blood pressure and heart rate are outputted to a recorder and recorded. Here, the mean blood pressure is recorded by a pressure amplifier (AP-641G) according to the formula: {diastolic blood pressure+(systolic blood pressure−diastolic blood pressure)/3 }.
Measurement of the blood pressure and heart rate is initiated, and it is checked that the respective values are almost constant. 3 mg/kg of the test compound is administered through the left femoral vein for 30 seconds. Specifically, 3 mg/mL of the test compound is rapidly administered at a dose volume of 1 mL/kg. The relative values of the values of average blood pressure and heart rate at each time point with respect to the same values obtained before the initiation of administration, are determined for each individual, and the average value±standard error of the relative values (%) obtainable when each parameter changes the most, is determined.

[2] = target: T1, human β1 adrenergic receptor (Homo sapiens, UniProt P08588); test: Test Example 2-B: human β1 adrenergic receptor agonist activity (method of Test Example 1-B); type: cell-based; details: for β1 receptor EC50: Table 2, Test Example 2-B; for Emax: read-out: β1 receptor I.A.
T1 construct: expressed in transfected cells; host or cells: CHO (Chinese Hamster Ovary) cells, pcDNA3
Procedure: (§1) The measurement of human β3 adrenergic receptor agonist activity is carried out using CHO (Chinese Hamster Ovary) cells transfected with pcDNA3 (manufactured by Invitrogen, Inc.) to which human β3 gene has been inserted. […] This human β3 cDNA fragment is used as a probe, and the full length human β3 gene is obtained from a human genomic library (manufactured by Clontech Laboratories, Inc.). The above cells are cultured in Ham's F-12 medium containing 10% fetal bovine serum and 400 μg/ml geneticin (manufactured by Invitrogen, Inc.). These cells are seeded on a 96-well plate to a concentration of 2×10^4 cells/well, and after being cultured for about 20 hours, the cells are left to stand in 80 μL of serum-free Ham's F-12 medium for 15 minutes. A test compound is initially dissolved in DMSO, and then is diluted stepwise with Ham's F-12 containing 100 mmol/L HEPES and 1 mmol/L isobutylmethylxanthine. 20 μL of the dilution is added to the cells. After the cells are cultured for 30 minutes, the medium is removed. 0.3. ml of the Assay/lysis Buffer included in cAMP-Screen kit (manufactured by Applied Biosystems, Inc.) is added to the cells, and the cells are incubated at 37° C. for 30 minutes. The resulting cell lysate is subjected to quantification of cAMP with the cAMP-Screen kit. […] Measurement of Human β1 Adrenergic Receptor Agonist Activity

[3] = system: urinary bladder smooth muscle isolated from common marmoset; test: Test Example 7: relaxant activity on urinary bladder smooth muscle isolated from common marmoset; details: KCl 40 mmol/L contraction, papaverine 10^−4 mol/L relaxation taken as 100%
Procedure: Common marmosets are (CLEA Japan, Inc.) exsanguinated to death, and then are subjected to laparotomy to isolate the urinary bladder therefrom. […] The strips are applied a resting tension of 1 g, and are equilibrated for at least 30 minutes. After the resting tension of the strips have been equilibrated, KCl at a final concentration of 40 mmol/L is repeatedly added to the organ bath, and it is confirmed that contraction due to KCl becomes almost constant. […] When the relaxation response at the maximum concentration of the test compound is completed, papaverine at a final concentration of 10^−4 mol/L is added, and the maximum relaxation response of each strip is determined.

[4] = target: T2, human β2 adrenergic receptor (Homo sapiens, UniProt P07550); test: Test Example 3-B: human β2 adrenergic receptor agonist activity (method of Test Example 1-B); type: cell-based; details: for β2 receptor EC50: Table 2, Test Example 3-B; for Emax: read-out: β2 receptor I.A.
T2 construct: expressed in transfected cells; host or cells: CHO (Chinese Hamster Ovary) cells, pcDNA3
Procedure: [Worded in the source for another target; this target is reported under the same test.] as §1, with “β2” for “β1”

T2 sequence (P07550 whole entry): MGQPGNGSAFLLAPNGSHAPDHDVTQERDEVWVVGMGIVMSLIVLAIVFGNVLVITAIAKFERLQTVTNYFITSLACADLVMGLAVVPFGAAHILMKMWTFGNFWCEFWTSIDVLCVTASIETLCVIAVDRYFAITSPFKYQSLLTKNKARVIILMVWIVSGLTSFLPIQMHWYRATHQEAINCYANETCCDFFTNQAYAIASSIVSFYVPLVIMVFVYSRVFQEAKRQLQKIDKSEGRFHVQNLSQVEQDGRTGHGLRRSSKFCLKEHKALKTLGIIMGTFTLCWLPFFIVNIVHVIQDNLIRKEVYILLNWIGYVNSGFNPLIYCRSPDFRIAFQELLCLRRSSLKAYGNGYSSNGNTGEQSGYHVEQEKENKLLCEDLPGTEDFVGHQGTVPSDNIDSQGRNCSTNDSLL
T1 sequence (P08588 whole entry): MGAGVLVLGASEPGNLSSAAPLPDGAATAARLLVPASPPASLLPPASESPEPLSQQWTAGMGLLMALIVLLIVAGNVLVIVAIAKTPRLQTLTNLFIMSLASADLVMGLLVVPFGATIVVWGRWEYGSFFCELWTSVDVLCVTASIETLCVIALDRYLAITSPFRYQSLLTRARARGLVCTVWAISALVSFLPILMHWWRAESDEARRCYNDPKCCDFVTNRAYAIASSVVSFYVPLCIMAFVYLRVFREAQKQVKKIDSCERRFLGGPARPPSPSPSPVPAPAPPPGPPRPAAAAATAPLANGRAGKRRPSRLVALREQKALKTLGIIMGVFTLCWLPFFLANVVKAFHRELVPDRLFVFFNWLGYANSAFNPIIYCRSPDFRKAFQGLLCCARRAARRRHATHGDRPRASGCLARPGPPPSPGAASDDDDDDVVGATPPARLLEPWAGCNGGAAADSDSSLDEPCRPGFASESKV

Row | Structure (SMILES) | increase in MBP (%) [1] [%] | β1 receptor EC50 [2] | Emax [2] [%] | relaxant activity (%) 10^−4 M [3] [%] | relaxant activity (%) 10^−5 M [3] [%] | β2 receptor EC50 [4] | Emax [4] [%]
1 | CC(C)c1n[nH]c2cc(OCCNC[C@H](O)c3cccc(NS(C)(=O)=O)c3)ccc12 [Example 1, (R)-N-(3-(1-hydroxy-2-(2-(3-isopropylindazol-6-yloxy)ethylamino)ethyl)phenyl)methanesulfonamide] | 4.7 ± 2.1 | a) | 12 | 68.6 | 49.9 | a) | 6.7
2 | CCc1n[nH]c2cc(OCCNC[C@H](O)c3cccc(NS(C)(=O)=O)c3)ccc12 [Example 2, (R)-N-(3-(1-hydroxy-2-(2-(3-ethylindazol-6-yloxy)ethylamino)ethyl)phenyl)methanesulfonamide] | 3.1 ± 0.5 | a) | 5.8 | 57.8 | 43.4 | a) | 4.3
3 | CCCc1n[nH]c2cc(OCCNC[C@H](O)c3cccc(NS(C)(=O)=O)c3)ccc12 [Example 3, (R)-N-(3-(1-hydroxy-2-(2-(3-propylindazol-6-yloxy)ethylamino)ethyl)phenyl)methanesulfonamide] | 3.4 ± 3.7 | a) | 1 |  |  | a) | 2
4 | CS(=O)(=O)Nc1cccc([C@@H](O)CNCCOc2ccc3c(C(F)(F)F)n[nH]c3c2)c1 [Example 4, (R)-N-(3-(1-hydroxy-2-(2-(3-trifluoromethylindazol-6-yloxy)ethylamino)ethyl)phenyl)methanesulfonamide] | 3.1 ± 2.1 | a) | 6.3 | 73.5 | 40.8 | a) | 2.4
5 | CN(C)C(=O)CCc1n[nH]c2cc(OCCNC[C@H](O)c3cccc(NS(C)(=O)=O)c3)ccc12 [Example 5, (R)-3-(6-(2-(2-hydroxy-2-(3-(methylsulfonamido)phenyl)ethylamino)ethoxy)-indazol-3-yl)-N,N-dimethylpropanamide] | 3.4 ± 2.2 |  |  | 56.3 | 50.9 | a) | 5.4
6 | COCc1n[nH]c2cc(OCCNC[C@H](O)c3cccc(NS(C)(=O)=O)c3)ccc12 [Example 6, (R)-N-(3-(1-hydroxy-2-(2-(3-methoxymethylindazol-6-yloxy)ethylamino)ethyl)phenyl)methanesulfonamide] | 2.8 ± 1.1 |  |  | 42.6 | 35.3 |  | 
7 | CCc1n[nH]c2cc(OCCNC[C@H](O)c3ccc(F)c(NS(C)(=O)=O)c3)ccc12 [Example 8, (R)-N-(5-(2-(2-(3-ethylindazol-6-yloxy)ethylamino)-1-hydroxyethyl)-2-fluorophenyl)methanesulfonamide] | 0.4 ± 0.5 | a) | 15 |  |  | a) | 11
8 | CCc1n[nH]c2cc(OCCNC[C@H](O)c3ccc(Cl)c(NS(C)(=O)=O)c3)ccc12 [Example 9, (R)-N-(2-chloro-5-(2-(2-(3-ethylindazol-6-yloxy)ethylamino)-1-hydroxyethyl)phenyl)methanesulfonamide] | 1.7 ± 2.7 | a) | 18 |  |  | a) | 8
9 | CS(=O)(=O)Nc1cc([C@@H](O)CNCCOc2ccc3c(C(F)(F)F)n[nH]c3c2)ccc1Cl [Example 11, (R)-N-(2-chloro-5-(1-hydroxy-2-(2-(3-(trifluoromethyl)indazol-6-yloxy)ethylamino)ethyl)phenyl)methanesulfonamide] | 1.8 ± 1.4 | a) | 22 | 39.2 | 20.1 | a) | 5
10 | COc1n[nH]c2cc(OCCNC[C@H](O)c3cccc(NS(=O)(=O)c4ccccc4)c3)ccc12 [Example 16, (R)-N-(3-(1-hydroxy-2-(2-(3-methoxyindazol-6-yloxy)ethylamino)ethyl)phenyl)benzenesulfonamide] | 6.6 ± 3.2 | a) | 7 |  |  | a) | 3
